From patent US10214724B2, “Methods for differentiation of human pluripotent stem cells to brain microvascular endothelial cells” (Wisconsin Alumni Research Foundation, priority 2016, dated 2019)

Experiments:
[1] = tested on: IMR90-4 induced pluripotent stem cells; test: Brachyury expression after CHIR99021 treatment (immunostaining, flow cytometry); type: cell-based, human; conditions: 6 μM, 24 hr treatment in DeSR1; IMR90-4 iPSCs
Method: Given the roles of canonical Wnt signaling in both mesoderm specification and BBB development, we first treated hPSCs with CHIR99021, a GSK-3β inhibitor and Wnt agonist, to direct hPSCs to mesoderm-derived endothelial progenitors. Prior to treatment, IMR90-4 induced pluripotent stem cells (iPSCs) were seeded on a Matrigel-coated six-well plate at a density of 35×10^3 cells/cm^2 and expanded in an undifferentiated state for three days in mTeSR1™ (FIG. 1A). […] After 24 hours, the medium was removed and cells were transitioned to DeSR2 (DeSR1 plus B27 supplement) for another five days with daily medium changes. At day 0, pluripotency was verified by OCT4, NANOG and TRA-1-60 immunostaining (FIGS. 1B-D). After 24 hr of CHIR99021 treatment, almost 100% of the cells expressed brachyury, assessed by immunostaining (FIG. 1E) and flow cytometry (FIG. 1F), indicating progression to primitive streak. […] At day 4, more than 90% of the cells expressed the intermediate mesoderm marker PAX2 (FIGS. 1G, 1H) and PAX2 expression peaked at day 6 (FIG. 5). […]
Cells were dissociated with Accutase™ and fixed in 1% PFA for 15 min at room temperature, then washed with 0.5% BSA (Bio-Rad) plus 0.1% Triton-X100 three times. […] Data were collected on a FACSCaliber flow cytometer (Beckton Dickinson) and analyzed using FlowJo. […]

hPSC-derived BMECs [2] = test: TEER of hPSC-derived BMECs on Transwells; type: cell-based, human; conditions: cells differentiated in the presence of RA; replated day 8, measured at day 10
Method: BMECs were differentiated as shown in FIG. 1A in the presence or absence of RA, as indicated. (A) At day 8 expression of tight junction and transporter genes was assessed by qPCR. (B) Flow cytometry for CD31 expression was performed at days 6 and 8. (C) Pgp expression was quantified by flow cytometry at day 10. At day 6, medium was switched to hESFM containing or lacking RA, as indicated. (D) At day 8, cells were replated onto Matrigel®-coated Transwell® membranes at 10^6 cells/cm^2 in the presence or absence of 10 μM Y27632 (ROCK inhibitor). Y27632 was added to increase attachment (Pipparelli et al., PloS one 2013, 8:e62095) of cells differentiated in the absence of RA and permit confluent monolayer formation. TEER was measured at day 10, two days after replating (D). (E, G) Occludin and (F, G) ZO-1 expression and localization were assessed by flow cytometry and immunostaining at day 10. Red arrows indicate non-uniform occludin or ZO-1. Claudin-5 expression at day 10 was assessed by flow cytometry (H, I). (I) At day 10, expression level of claudin-5 in BMECs differentiated in the presence or absence of RA were assessed by flow cytometry. (J) Localization and expression of claudin-5 of cells differentiated in the absence of RA was determined via immunostaining (white arrows indicate non-positive claudin-5 and red arrows indicate discontinuous claudin-5). […]

hPSC-derived BMECs [3] = test: Flow cytometry of BMEC marker proteins (claudin-5, Pgp, occludin, ZO-1) with or without RA; type: cell-based, human
Description: Data were collected on a FACSCaliber flow cytometer (Beckton Dickinson) and analyzed using FlowJo.

[4] = tested on: tight junction related genes TJP1, CLDN5 and OCLN and efflux transporters ABCG2, ABCC1, and ABCB1; test: Quantitative RT-PCR of tight junction and transporter genes with or without RA; type: cell-based, human; conditions: 10 μM RA day 6 to day 8; qPCR at day 8
Method: Total RNA was extracted with the RNeasy mini kit (QIAGEN) and treated with DNase (QIAGEN). 1 μg total RNA was reverse transcribed into cDNA via Oligo (dT) with Superscript III Reverse Transcriptase (Invitrogen). Real-time quantitative PCR was done in triplicate with iQSYBR Green™ SuperMix (Bio-Rad). GAPDH was used as an endogenous housekeeping control.

hPSC-derived BMECs [5] = test: ICAM-1 induction by TNF-α; conditions: 10 ng/mL TNF-α for 16 hours; day 10 hPSC-derived BMECs
Method: (D-F) ICAM-1 induction in hPSC-derived BMECs. hPSC-derived BMECs at day 10 were treated with 10 ng/mL of TNF-α for 16 hours. Cells were stained for ICAM-1 (D) before and (E) after TNF-α treatment. (F) Cells were dissociated or dissociated with Accutase™ and ICAM-1 expression quantified by flow cytometry before and after TNF-α treatment. […] Data were collected at least from three independent samples and are represented as mean±SEM. **p<0.01, ***p<0.001.

Cc1c[nH]c(-c2cnc(NCCNc3ccc(C#N)cn3)nc2-c2ccc(Cl)cc2Cl)n1 [CHIR99021]
cells expressing brachyury [1]: ~100%

CC1=C(/C=C/C(C)=C/C=C/C(C)=C/C(=O)O)C(C)(C)CCC1 [RA, retinoic acid]
TEER (hPSC-derived BMECs [2]): ~4000 Ω·cm^2
cells expressing claudin-5 (hPSC-derived BMECs [3]; RA-treated cells, day 10, flow cytometry (around 60% in the absence of RA)): 100%
cells expressing Pgp (hPSC-derived BMECs [3]; differentiated in the presence of RA, day 10, flow cytometry): ~100%
expression of TJP1, CLDN5, OCLN, ABCG2, ABCC1 and ABCB1 in cells exposed to RA vs. lacking RA [4]: 3-20 fold

TNF-α
ICAM-1 expression (hPSC-derived BMECs [5]): upregulation
